Experimental data as given in US6596687B1, “Cell adhesion inhibitors” (Biogen, Inc., priority 1995, dated 2003).
Numbered stars: 1 amine (or outer) side, 2 acyl side, 3 side chain; on linkers, the order of the positions; unused ones are H or OH. Square brackets hold non-standard residues; d marks the D form. Peptide text beside a SMILES is read from it. * marks the point of attachment. X2 = O=C(Cc1ccc(N[*:1])cc1)[*:2]; NH(2-Me-phenyl) = Cc1ccccc1N*; CO = O=C([*:1])[*:2]; NHPh = c1ccc(N*)cc1; X4 = c1ccc(N*)nc1

The molecules below were run against T1, VLA4 (Homo sapiens, UniProt P05556+P13612) (assay: Inhibition of VLA4-dependent adhesion of Ramos cells to BSA-CS1). Conditions: Ramos cells, BSA-CS1 coated wells, 2 mM MnCl2, 30 minutes at room temperature; read-out: IC50.
T1 construct: endogenous in cells; host or cells: Ramos cells
T1 sequence (P13612 34-1032): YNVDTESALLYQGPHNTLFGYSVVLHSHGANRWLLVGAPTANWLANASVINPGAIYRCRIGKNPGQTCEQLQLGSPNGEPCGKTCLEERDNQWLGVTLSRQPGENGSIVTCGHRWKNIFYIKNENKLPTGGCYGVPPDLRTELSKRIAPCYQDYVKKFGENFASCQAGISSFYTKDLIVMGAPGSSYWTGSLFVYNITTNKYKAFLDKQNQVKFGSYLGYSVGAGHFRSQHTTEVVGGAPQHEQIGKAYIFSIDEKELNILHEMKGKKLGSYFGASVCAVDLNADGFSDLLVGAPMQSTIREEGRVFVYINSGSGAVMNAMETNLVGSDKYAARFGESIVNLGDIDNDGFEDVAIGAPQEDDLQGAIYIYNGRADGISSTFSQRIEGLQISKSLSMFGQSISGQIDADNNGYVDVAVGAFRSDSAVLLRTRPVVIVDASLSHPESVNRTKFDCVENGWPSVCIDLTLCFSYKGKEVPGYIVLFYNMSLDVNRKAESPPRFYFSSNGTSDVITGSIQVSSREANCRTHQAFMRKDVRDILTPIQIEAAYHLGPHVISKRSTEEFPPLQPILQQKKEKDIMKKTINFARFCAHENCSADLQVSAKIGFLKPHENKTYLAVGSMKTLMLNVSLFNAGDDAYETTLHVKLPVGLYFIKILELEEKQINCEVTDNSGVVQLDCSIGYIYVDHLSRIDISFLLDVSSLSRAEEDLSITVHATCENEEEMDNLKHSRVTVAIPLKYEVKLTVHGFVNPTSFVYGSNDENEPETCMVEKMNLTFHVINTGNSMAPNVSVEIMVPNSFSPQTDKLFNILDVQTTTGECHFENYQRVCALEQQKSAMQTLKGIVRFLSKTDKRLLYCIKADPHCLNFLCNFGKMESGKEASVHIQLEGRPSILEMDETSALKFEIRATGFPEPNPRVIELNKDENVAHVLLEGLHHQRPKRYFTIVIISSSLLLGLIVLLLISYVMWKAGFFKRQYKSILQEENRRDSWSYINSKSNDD
T1 sequence (P05556 21-798): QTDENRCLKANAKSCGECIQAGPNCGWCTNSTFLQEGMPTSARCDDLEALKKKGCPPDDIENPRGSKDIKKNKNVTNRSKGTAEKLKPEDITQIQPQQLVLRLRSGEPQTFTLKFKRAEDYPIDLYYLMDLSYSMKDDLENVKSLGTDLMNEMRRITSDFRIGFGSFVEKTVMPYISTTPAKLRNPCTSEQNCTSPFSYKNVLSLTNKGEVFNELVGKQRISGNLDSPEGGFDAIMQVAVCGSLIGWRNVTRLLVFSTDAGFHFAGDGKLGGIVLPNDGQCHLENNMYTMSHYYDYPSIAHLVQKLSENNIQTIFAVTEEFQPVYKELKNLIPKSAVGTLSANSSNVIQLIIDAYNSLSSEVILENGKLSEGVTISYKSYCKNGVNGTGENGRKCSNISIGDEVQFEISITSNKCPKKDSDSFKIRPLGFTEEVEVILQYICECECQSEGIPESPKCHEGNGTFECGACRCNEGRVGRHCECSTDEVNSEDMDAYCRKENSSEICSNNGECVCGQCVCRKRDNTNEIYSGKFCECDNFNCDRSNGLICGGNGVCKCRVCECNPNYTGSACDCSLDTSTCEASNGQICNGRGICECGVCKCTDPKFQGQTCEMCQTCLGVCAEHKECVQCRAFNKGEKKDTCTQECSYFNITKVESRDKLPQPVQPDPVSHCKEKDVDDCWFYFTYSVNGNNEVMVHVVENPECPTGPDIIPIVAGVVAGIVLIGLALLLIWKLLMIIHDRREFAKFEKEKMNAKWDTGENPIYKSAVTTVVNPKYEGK
Assay type: cell-based
Outline: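 BCECF-AM-labelled Ramos cells in Tris buffer pH 7.4 with 2 mM MnCl2 were added with compound to wells coated with BSA-conjugated Cys-Tyr-CS1 peptide (1 μg/mL). Cells and compound were incubated for 30 min at room temperature, in triplicate. Inhibition was quantified from bound fluorescence against no-compound controls, with uncoated wells used for nonspecific binding.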

SMILES	IC50 [nM]
CC(C)C[C@H](NC(=O)Cc1ccc(NC(=O)Nc2ccccc2)cc1)C(=O)N[C@@H](CC(=O)O)C(=O)N[C@H](C(=O)N1CCC[C@H]1C(N)=O)C(C)C [Compound 201] ({NHPh-CO}-[X2]LDVP-NH2)	50 to 10000
CC(C)C[C@H](NC(=O)Cc1ccc(NC(=O)Nc2ccccc2)cc1)C(=O)N[C@@H](CC(=O)O)C(=O)N[C@H](C(=O)O)C(C)C [Compound 203]	< 50
CNC(=O)[C@@H](NC(=O)[C@H](CC(=O)O)NC(=O)[C@H](CC(C)C)NC(=O)Cc1ccc(NC(=O)Nc2ccccc2)cc1)C(C)C [Compound 204]	50 to 10000
CC(C)CNC(=O)[C@@H](NC(=O)[C@H](CC(=O)O)NC(=O)[C@H](CC(C)C)NC(=O)Cc1ccc(NC(=O)Nc2ccccc2)cc1)C(C)C [Compound 205]	50 to 10000
CC[C@H](C)[C@H](NC(=O)Cc1ccc(NC(=O)Nc2ccccc2)cc1)C(=O)N[C@@H](CC(=O)O)C(=O)N[C@H](C(=O)N1CCC[C@H]1C(N)=O)C(C)C [Compound 209] ({NHPh-CO}-[X2]IDVP-NH2)	50 to 10000
CC(C)CC(NC(=O)Cc1ccc(NC(=O)Nc2ccccc2)cc1)C(=O)NC(CC(=O)O)C(=O)NC(C(=O)N1CCCC1C(N)=O)C(C)C (centres unmarked) [Compound 211] ({NHPh-CO}-[X2]LDVP-NH2; configuration not given here)	50 to 10000
CC(C)C[C@H](NC(=O)Cc1ccc(NC(=O)Nc2ccccc2)cc1)C(=O)N[C@@H](CC(=O)O)C(=O)NCc1ccccc1 [Compound 213]	50 to 10000
CC(C)C[C@H](NC(=O)Cc1ccc(NC(=O)Nc2ccccc2)cc1)C(=O)N[C@@H](CC(=O)O)C(=O)N1CCOCC1 [Compound 214]	50 to 10000
CC(C)C[C@H](NC(=O)Cc1ccc(NC(=O)Nc2ccccc2)cc1)C(=O)N[C@@H](CC(=O)O)C(=O)NC(C)C [Compound 215]	50 to 10000
CC(C)CC(NC(=O)Cc1ccc(NC(=O)Nc2ccccc2)cc1)C(=O)NC(CC(=O)O)C(=O)NC1CCCCC1 (centres unmarked) [Compound 216]	50 to 10000
CC(C)CNC(=O)[C@H](CC(=O)O)NC(=O)[C@H](CC(C)C)NC(=O)Cc1ccc(NC(=O)Nc2ccccc2)cc1 [Compound 217]	50 to 10000
CC(C)C[C@H](NC(=O)Cc1ccc(NC(=O)Nc2ccccc2)cc1)C(=O)N[C@@H](CC(=O)O)C(=O)N1CCCCC1 [Compound 218]	50 to 10000
CSCC[C@H](NC(=O)Cc1ccc(NC(=O)Nc2ccccc2C)cc1)C(=O)N[C@@H](CC(=O)O)C(=O)N[C@H](C(N)=O)C(C)C [Compound 221]	< 50
CSCC[C@H](NC(=O)[C@H](CC(=O)O)NC(=O)[C@H](CCSC)NC(=O)Cc1ccc(NC(=O)Nc2ccccc2C)cc1)C(N)=O [Compound 225]	< 50
Cc1ccccc1NC(=O)Nc1ccc(CC(=O)N[C@@H](CC(C)C)C(=O)N[C@@H](CC(=O)O)C(=O)N[C@H](C(N)=O)[C@@H](C)O)cc1 [Compound 235]	< 50
Cc1ccccc1NC(=O)Nc1ccc(CC(=O)N[C@@H](CC(C)C)C(=O)N[C@@H](CC(=O)O)C(=O)N[C@@H](Cc2c[nH]c3ccccc23)C(N)=O)cc1 [Compound 239]	< 50
CC[C@H](C)[C@H](NC(=O)[C@H](CC(=O)O)NC(=O)[C@@H]1CCCN1C(=O)Cc1ccc(NC(=O)Nc2ccccc2C)cc1)C(N)=O [Compound 244]	< 50
CSCC[C@H](NC(=O)[C@H](CC(=O)O)NC(=O)[C@@H]1CCCN1C(=O)Cc1ccc(NC(=O)Nc2ccccc2C)cc1)C(N)=O [Compound 247]	< 50
Cc1ccccc1NC(=O)Nc1ccc(CC(=O)N[C@H](C(=O)N[C@@H](CC(=O)O)C(=O)N[C@@H](CC(=O)O)C(N)=O)[C@@H](C)O)cc1 [Compound 252]	< 50

SMILES	IC50 [nM]
Cc1ccccc1NC(=O)Nc1ccc(CC(=O)N[C@H](C(=O)N[C@@H](CC(=O)O)C(=O)N[C@@H](CC(C)C)C(N)=O)[C@@H](C)O)cc1 [Compound 253]	< 50
CC[C@H](C)[C@H](NC(=O)[C@H](CC(=O)O)NC(=O)[C@@H](NC(=O)Cc1ccc(NC(=O)Nc2ccccc2C)cc1)[C@@H](C)O)C(N)=O [Compound 255]	< 50
Cc1ccccc1NC(=O)Nc1ccc(CC(=O)N[C@@H](CCC(=O)O)C(=O)N[C@@H](CC(=O)O)C(=O)N[C@@H](CC(=O)O)C(N)=O)cc1 [Compound 263]	< 50
Cc1ccccc1NC(=O)Nc1ccc(CC(=O)N[C@@H](CO)C(=O)N[C@@H](CC(=O)O)C(=O)N[C@@H](CC(C)C)C(N)=O)cc1 [Compound 276]	< 50
Cc1ccccc1NC(=O)Nc1ccc(CC(=O)N[C@@H](CO)C(=O)N[C@@H](CC(=O)O)C(=O)N[C@@H](CCC(=O)O)C(N)=O)cc1 [Compound 279]	< 50
CC[C@H](C)[C@H](NC(=O)Cc1ccc(NC(=O)Nc2ccccc2C)cc1)C(=O)N[C@@H](CC(=O)O)C(=O)N[C@@H](CC(=O)O)C(N)=O [Compound 286]	< 50
CC[C@H](C)[C@H](NC(=O)Cc1ccc(NC(=O)Nc2ccccc2C)cc1)C(=O)N[C@@H](CC(=O)O)C(=O)N[C@@H](CCC(=O)O)C(N)=O [Compound 290]	< 50
CC[C@H](C)[C@H](NC(=O)[C@H](CC(=O)O)NC(=O)[C@H](CCC(N)=O)NC(=O)Cc1ccc(NC(=O)Nc2ccccc2C)cc1)C(N)=O [Compound 300]	< 50
CSCC[C@H](NC(=O)[C@H](CC(=O)O)NC(=O)[C@H](CCC(N)=O)NC(=O)Cc1ccc(NC(=O)Nc2ccccc2C)cc1)C(N)=O [Compound 303]	< 50
Cc1ccccc1NC(=O)Nc1ccc(CC(=O)N[C@@H](CC(C)C)C(=O)N[C@@H](CCC(=O)O)C(=O)N[C@@H](CC(=O)O)C(N)=O)cc1 [Compound 310]	< 50
Cc1ccccc1NC(=O)Nc1ccc(CC(=O)N[C@@H](CC(C)C)C(=O)N[C@@H](CCC(=O)O)C(=O)N[C@H](C(N)=O)C(C)C)cc1 [Compound 311]	< 50
Cc1ccccc1NC(=O)Nc1ccc(CC(=O)N2CCC[C@H]2C(=O)N[C@@H](CCC(=O)O)C(=O)N[C@H](C(N)=O)C(C)C)cc1 [Compound 313]	< 50
CSCC[C@H](NC(=O)Cc1ccc(NC(=O)Nc2ccccc2C)cc1)C(=O)N[C@@H](CC(=O)O)C(=O)N[C@H](C(=O)N1CCC[C@H]1C(=O)O)C(C)C [Compound 315] ({NH(2-Me-phenyl)-CO}-[X2]MDVP-OH)	< 50
CC(C)C[C@H](NC(=O)Cc1ccc(NC(=O)Nc2ccccn2)cc1)C(=O)N[C@@H](CC(=O)O)C(=O)N[C@H](C(=O)N1CCC[C@H]1C(=O)O)C(C)C [Compound 316] ({X4-CO}-[X2]LDVP-OH)	< 50
CC(C)C[C@H](NC(=O)Cc1ccc(NC(=O)Nc2ccccc2)cc1)C(=O)N[C@@H](CC(=O)O)C(=O)N[C@H](C(=O)N1CCOCC1)C(C)C [Compound 318]	< 50
CC(C)C[C@H](NC(=O)Cc1ccc(NC(=O)Nc2ccccc2)cc1)C(=O)N[C@@H](CC(=O)O)C(=O)N[C@H](C(=O)NC(C)C)C(C)C [Compound 319]	50 to 10000
CC(C)C[C@H](NC(=O)Cc1ccc(NC(=O)Nc2ccccc2)cc1)C(=O)N[C@@H](CC(=O)O)C(=O)N[C@H](C(=O)NC1CCCCC1)C(C)C [Compound 320]	50 to 10000
CC(C)C[C@H](NC(=O)Cc1ccc(NC(=O)Nc2ccccc2)cc1)C(=O)N[C@@H](CC(=O)O)C(=O)N[C@H](C(=O)NCc1ccccc1)C(C)C [Compound 321]	50 to 10000
CC(C)C[C@H](NC(=O)Cc1ccc(NC(=O)Nc2ccccc2)cc1)C(=O)N[C@@H](CC(=O)O)C(=O)N[C@H](C(=O)N1CCCCC1)C(C)C [Compound 322]	< 50
